Where no end group is shown, it is not given here.
Key:
HSV-1 [1] = assay: microbe, parasite or virus in culture; type: cell-based, Herpes simplex virus type 1 (HSV-1 17 + strain); conditions: U251 cells
Procedure: (§1) Human glioma cells (U251) were maintained in Dulbecco’s Modified Eagle Medium (DMEM; Gibco, Waltham, MA, USA) supplemented with 10% heat-inactivated fetal bovine serum (FBS; ExCell), 100 U/mL penicillin, and 100 µg/mL streptomycin. Serum inactivation was performed at 56 °C for 30 min prior to medium supplementation. Cell cultures were incubated at 37 °C under 5% CO2 atmosphere. The HSV-1 17 + strain utilized in this study was maintained under laboratory preservation conditions.
U251 cells were seeded into 12-well plates at a density of 2 × 10^5 cells per well and incubated for 12 h. […] Following treatment, the total DNA was extracted by using DNA isolation mini kit (Vazyme, Nanjing, China) under the manufacturer’s instructions.
Total RNA was extracted using TRIzol reagent (Invitrogen, Carlsbad, CA, USA). One microgram of RNA was reverse-transcribed into cDNA by using a reverse transcription kit (Vazyme, China). Diluted gDNA and cDNAs were subjected to qPCR analysis using ChamQ Universal SYBR qPCR Master Mix (Vazyme, China) with the following parameters: 95 °C for 30 s, followed by 40 cycles of 95 °C for 5 s and 60 °C for 30 s, followed by melting curve analysis. Primers for qPCR were synthesized by Sangon Biotech (Shanghai, China) (Appendix A Table A2). The qPCR data were analyzed using the 2^−ΔΔCt method.

U251 cells = assay: Cytotoxicity assay (CCK-8) on U251 cells; type: cell-based, Human; conditions: 24 h
Procedure: as §1
Cell viability was evaluated by using cell counting kit-8 reagent (CCK-8, Biosharp, Shanghai, China) according to the manufacturer’s protocol. Briefly, U251 cells were seeded in 96-well culture plates and cultured for 12 h at 37 °C. The cells were then treated with or without peptides for 24 h. After that, 10 μL of the CCK-8 reaction mixture were added to each well and incubated at 37 °C for 0.5–4 h. The absorbance of each well was measured at 450 nm with a SpectraMax M2e Multi-Mode Microplate Reader (Molecular Devices, USA). The formula for calculating cell viability is as follows:
Cell viability (%) = (average OD of treated sample-average OD of vehicle sample)/(average OD of cell sample-average OD of vehicle sample) × 100%

HSV-1 [2] = assay: HSV-1 footpad inoculation mouse model, viral load (UL30 gene copies) and lung H&E histology; type: in vivo; conditions: C57BL/6J mice, 10 mg/kg i.p. once daily for 5 days
Procedure: Female C57BL/6J mice, aged 6–8 weeks, were purchased from Beijing Vital River Laboratory Animal Technology Co., Ltd. (Beijing, China). […] Except for the vehicle control group, mice in the other groups were subplantarly infected with HSV-1 at a dose of 1.0 × 10^6 PFU per mouse. […] The vehicle control and virus control groups received an equivalent volume of phosphate-buffered saline (PBS). Mice were euthanized 24 h after the last administration, and tissue samples were collected. Body weight was measured daily at a fixed time during the treatment period to generate weight change curves.
Tissues were homogenized using a tissue grinder and total DNA was extracted from homogenate supernatants using a DNA isolation mini kit (Vazyme, China) under the manufacturer’s instructions. To establish a standard curve for real-time quantitative PCR (qPCR), the UL30 gene was used as the target sequence, and a recombinant plasmid containing this gene was constructed. In brief, the UL30 gene was cloned into the pMD19-T vector and transformed into DH5α. After verification by colony PCR and sequencing, high-purity plasmid DNA was extracted, and its concentration was measured using Nanodrop and converted into copy numbers (copies/μL). Then a 10-fold serial dilution (10^1–10^8 copies/μL) was prepared to generate the standard curve. Using the extracted DNA as a template, UL30 gene copy numbers were quantified in mouse tissues through qPCR with UL30 specific primers.
Tissues were fixed in 4% paraformaldehyde for 72 h and subsequently processed by Servicebio Biotechnology Co., Ltd. (Wuhan, China) for paraffin embedding, pathological sectioning, and hematoxylin eosin (H&E) staining.

“GRRVKGFFRDVLRRVPYLPGPR-NH2 [EM-2, modified peptide derived from Elephas maximus cathelicidin EM]” was tested, and the “Relative DNA levels of HSV-1 UL30” value (HSV-1 [1]; HSV-1 MOI = 0.1, 24 h, 10 μM peptide, versus virus control group, p < 0.001) was “marked suppression of HSV-1 activity” and the “Cytotoxic effect on U251 cells (cell viability)” value (U251 cells; U251 cells, CCK-8, 5 μM and 10 μM, compared to peptide EM, EM-3 and EM-4) was “significantly lower toxicity”.

RRIRGLRKFFRKSKEKLKKV-NH2 [EM-1] was tested, and the “CC50 (median cytotoxic concentration)” value (U251 cells) was 214.55 ± 36.25 µM.

With Nc1nc2c(ncn2COCCO)c(=O)[nH]1 [ACV, Acyclovir] the “Lung tissue viral load (HSV-1 UL30 gene copies)” value (HSV-1 [2]; HSV-1 footpad 1.0 × 10^6 PFU, day 5 post-infection, n = 5, HSV-1 control 7.02 ± 0.57) was 6.01 ± 0.13 log10 copies/μL, the “Heart tissue viral load versus HSV-1 control group” value (HSV-1 [2]; HSV-1 footpad, n = 5, HSV-1 control 7.78 ± 0.41 log10 copies/μL) was “neither the EM-1 nor the ACV treatment group showed a significant difference” and the “Lung histopathology (H&E staining)” value (HSV-1 [2]; HSV-1 footpad, compared with HSV-1 control group) was “preserved normal alveolar architecture”. The IC50 (HSV-1 [1]; Human alphaherpesvirus 1, U-251, HSV-1 MOI = 0.1, co-treatment 24 h, qPCR of UL30 DNA, mean ± SEM of three independent experiments, read-out: IC50 against HSV-1) was 17.6 ± 5.75 µM.
